Experimental data taken from paper PMC7367369, “A small library of chalcones induce liver cancer cell death through Akt phosphorylation inhibition” (Scientific Reports, 2020).
Where a name gives a salt, the structure may show the parent alone. Read-outs that look alike come from different tables or passages of the source.

Experiments:
Format in all cases: cell-based, human
[1] = tested on: dental pulp stem cells (DPSC); assay: NCI-60 sulforhodamine B (SRB) cytotoxicity assay, dental pulp stem cells; conditions: 72 h, read-out: IC50 DPSC
Protocol: (§1) The bioactivities of the synthesized chalcones were assessed on human liver cancer cell lines and on DPSCs with NCI-SRB assay in vitro. DPSCs used to asses the bioactivity of chalcones on untransformed control cells with the potential of hepatic lineage. […] We also included 5-Fluorouracil which is used in clinics for gastrointestinal cancers and Sorafenib. All results were normalized to DMSO negative control measurements. The experiment was performed in triplicate.
Dental pulp stem cells (DPSCs) were isolated from anonymised unidentified healthy intact wisdom tooth. DPSCs were isolated within few hours upon wisdom teeth surgery from patients above 18 years old. All were informed about the procedures, and their consents were obtained. Teeth were broken carefully in order to reach the dental pulp area. […] Then, the cells were seeded onto flasks in 10ml DMEM-F12 media (Lonza) supplemented with 1% penicillin/streptomycin solution (Hyclone) and 15% FBS (Fetal Bovine Serum,Hyclone, Logan, UT, USA) and cultured in a 5% CO2 incubator at 37^∘C .
(§2) Primary liver cancer cells Huh7, HepG2, Hep3B, Mahlavu, FOCUS, Snu475 along with hepatic progenitor Dental pulp stem cells were seeded into 96-well plates (1,000–3,000 HCC cell/well and 10,000 cells DPSC/well ) for 24 h. The cells were then treated with increasing concentrations of the chalcones ( 2.5-40μM ). DMSO (AppliChem Biochemica, Darmstadt, Germany) was used as negative control. The growth has stopped at the end of 72 h by fixing cold with 10% (v/v) trichloroacetic acid (Merck, Schuchardt, Germany). Cells were then stained with 0.4% (m/v) of sulforhodamine (Sigma-Aldrich, St. Louis, USA) in 1% acetic acid solution. […] All experiments were done in triplicate.

[2] = tested on: Mahlavu; assay: NCI-60 sulforhodamine B (SRB) cytotoxicity assay, Mahlavu; conditions: 72 h, read-out: IC50 Mahlavu
Protocol: as §1
(§3) Well differentiated human primary liver cancer cell lines Huh7, HepG2 and Hep3B, and poorly differentiated Mahlavu, FOCUS and SNU475 HCC cells were cultured in Dulbecco’s Modified Eagle’s Standard (DMEM) medium supplemented with 10% Fetal Bovine Serum (FBS), 100 units/mL penicillin and 100 µg/mL streptomycin (Gibco, Invitrogen, Carlsbad, CA, USA). 0.1 mM nonessential amino acids (NEAA) which are specific to HCC cell lines also added to culture media. Cells were cultured in a 5% CO2 incubator at 37^∘C
as §2

[3] = tested on: Huh7; assay: NCI-60 sulforhodamine B (SRB) cytotoxicity assay, Huh7; conditions: read-out: IC50 Huh7
Protocol: as §1, §3
Primary liver cancer cells Huh7, HepG2, Hep3B, Mahlavu, FOCUS, Snu475 along with hepatic progenitor Dental pulp stem cells were seeded into 96-well plates (1,000–3,000 HCC cell/well and 10,000 cells DPSC/well ) for 24 h. The cells were then treated with increasing concentrations of the chalcones ( 2.5-40μM ). DMSO (AppliChem Biochemica, Darmstadt, Germany) was used as negative control. The growth has stopped at the end of 72 h by fixing cold with 10% (v/v) trichloroacetic acid (Merck, Schuchardt, Germany). Cells were then stained with 0.4% (m/v) of sulforhodamine (Sigma-Aldrich, St. Louis, USA) in 1% acetic acid solution. The absorbency values were acquired at 515 nm. All experiments were done in triplicate.

[4] = tested on: Hep3B; assay: NCI-60 sulforhodamine B (SRB) cytotoxicity assay, Hep3B; conditions: 72 h, read-out: IC50 Hep3B
Protocol: as §1, §3, §2

[5] = tested on: HepG2; assay: NCI-60 sulforhodamine B (SRB) cytotoxicity assay, HepG2; conditions: read-out: IC50 HepG2
Protocol: as §1, §3, §2

[6] = tested on: SNU475; assay: NCI-60 sulforhodamine B (SRB) cytotoxicity assay, SNU475; conditions: read-out: IC50 SNU475
Protocol: as §1, §3, §2

[7] = tested on: FOCUS; assay: NCI-60 sulforhodamine B (SRB) cytotoxicity assay, FOCUS; conditions: 72 h, read-out: IC50 FOCUS
Protocol: as §1, §3, §2

[8] = Homo sapiens, SRB, 2.5–40 μM, triplicate, untransformed control cells
[9] = Homo sapiens, Mahlavu, SRB, 2.5–40 μM, triplicate
[10] = Homo sapiens, Huh-7, SRB, 72 h, 2.5–40 μM, triplicate
[11] = Homo sapiens, Hep3B, SRB, 2.5–40 μM, triplicate
[12] = Homo sapiens, HepG2, SRB, 72 h, 2.5–40 μM, triplicate
[13] = Homo sapiens, SNU-475, SRB, 72 h, 2.5–40 μM, triplicate
[14] = Homo sapiens, SRB, 2.5–40 μM, triplicate
[15] = SRB, 72 h, 2.5–40 μM, triplicate

Compound	IC50 [1, 8]	IC50 [2, 9]	IC50 [3, 10]	IC50 [4, 11]	IC50 [5, 12]	IC50 [6, 13]	IC50 [7, 14]	further results
COc1ccc(C(=O)/C=C/c2ccccc2)cc1 [compound 3]	> 40 µM	9.4 µM	6.4 µM	18 µM	7.6 µM	13.1 µM	20 µM	
O=c1[nH]cc(F)c(=O)[nH]1 [5-Fluorouracil, reference compound]	23.7 µM	10 µM	30.7 µM	15.2 µM	5 µM		7.7 µM	
CNC(=O)c1cc(Oc2ccc(NC(=O)Nc3ccc(Cl)c(C(F)(F)F)c3)cc2)ccn1 [Sorafenib, reference compound]	7.1 µM	7.9 µM			5.6 µM	7.5 µM		IC50 ([3]; Homo sapiens, Huh-7, 72 h): 1.3 µM
O=C(/C=C/c1cccc([N+](=O)[O-])c1)c1ccccc1 [compound 4]	> 40 µM	24.8 µM	> 40 µM	> 40 µM	> 40 µM	23.8 µM	> 40 µM	
COc1ccc(/C=C/C(=O)c2ccccc2)cc1 [compound 6]								IC50 ([1]; Homo sapiens): > 40 µM; IC50 ([2]; Homo sapiens, Mahlavu): 6.3 µM; IC50 ([3]; Homo sapiens, Huh-7, 72 h): 6.4 µM; IC50 ([4]; Homo sapiens, Hep3B): 7.8 µM; IC50 ([5]; Homo sapiens, HepG2, 72 h): 7.6 µM; IC50 ([6]; Homo sapiens, SNU-475, 72 h): 10 µM; IC50 ([7]; Homo sapiens): 6.5 µM
O=c1c(O)c(-c2ccc(O)c(O)c2)oc2cc(O)cc(O)c12 [Quercetin, reference compound]	21.2 µM	11.3 µM	12.5 µM	21.8 µM	8.4 µM	11.6 µM	17.9 µM	
COc1ccc(C(=O)/C=C/c2ccc(Cl)cc2)cc1 [compound 10]	> 40 µM	14.6 µM	11.9 µM	16.5 µM	13.9 µM	20 µM	15.9 µM	
COc1ccc(/C=C/C(=O)c2ccc(OC)cc2)cc1 [compound 8]	> 40 µM	17.3 µM	17.9 µM	22.1 µM	26 µM	21.6 µM	21.5 µM	
COc1ccc(Cc2nccc3cc(OC)c(OC)cc23)cc1OC [Papaverine hydrochloride, reference compound]	> 40 µM	> 40 µM		20.4 µM	4.9 µM	17.8 µM	1.7 µM	IC50 ([3]; Homo sapiens, Huh-7, 72 h): 8.5 µM
COc1ccc(/C=C/C(=O)c2cccc([N+](=O)[O-])c2)cc1 [compound 7]	> 40 µM	31.1 µM	> 40 µM	> 40 µM	> 40 µM	> 40 µM	> 40 µM	
Oc1cc(O)c2c(c1)O[C@H](c1ccc(O)c(O)c1)[C@@H](O)C2 [Catechin hydrate, reference compound]								IC50 ([1]; SRB, 2.5–40 μM, triplicate, untransformed control cells): > 40 µM; IC50 ([2]; SRB, 2.5–40 μM, triplicate): > 40 µM; IC50 [3, 15]: > 40 µM; IC50 ([4]; SRB, 2.5–40 μM, triplicate): > 40 µM; IC50 [5, 15]: > 40 µM; IC50 [6, 15]: > 40 µM; IC50 ([7]; SRB, 2.5–40 μM, triplicate): > 40 µM
